Reference: PubChem BioAssay (NCI)
“And” between values parts separate entries of the source, which are not always exact repeats. Identical values can stand only once.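 All cell lines were grown in 96-well plates and treated with compound for 48 hours. GI50 is the concentration that inhibits growth by half. TGI marks complete inhibition of growth.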

Columns and labels:
Assay in all cases: NCI tumour cell line growth inhibition, 48 h
RXF-631 renal = test system: RXF-631 renal
DMS 114 small cell lung = test system: DMS 114 small cell lung
M19-MEL melanoma = test system: M19-MEL melanoma
XF 498 CNS = test system: XF 498 CNS
DLD-1 colon = test system: DLD-1 colon
SNB-78 CNS = test system: SNB-78 CNS
DMS 273 small cell lung = test system: DMS 273 small cell lung
HOP-18 NSCLC = test system: HOP-18 NSCLC
P388/ADR leukemia = test system: P388/ADR leukemia
SN12K1 renal = test system: SN12K1 renal
P388 leukemia = test system: P388 leukemia

SMILES | TGI (RXF-631 renal) | TGI (DMS 114 small cell lung) | TGI (M19-MEL melanoma) | TGI (XF 498 CNS) | TGI (DLD-1 colon) | TGI (SNB-78 CNS) | TGI (DMS 273 small cell lung) | TGI (HOP-18 NSCLC) | GI50 (DMS 114 small cell lung) | TGI (P388/ADR leukemia) | TGI (SN12K1 renal) | TGI (P388 leukemia)
COc1ccc(-c2oc(/C=N/NC(N)=S)c([N+](=O)[O-])c2-c2ccc(OC)c(OC)c2)cc1OC | > 100 µM | 46.8 µM | 63.1 µM | > 100 µM | > 100 µM |  |  |  |  |  |  | 
CC(O)CCCOC(c1ccccc1)(c1ccccc1)c1ccccc1 (centres undefined) |  | 26.4 µM | 31 µM | 28.2 µM | 31.5 µM | 29.3 µM |  |  |  |  |  | 
CCC1=CC2CN3Cn4c(c(COCc5c6n(c7ccccc57)CN5CC7C=C(CC)C5C6(C(=O)OC)C7)c5ccccc54)C(C(=O)OC)(C2)C13 |  | > 100 µM | > 100 µM | > 100 µM | > 100 µM |  | > 100 µM |  |  |  |  | 
Cc1cn([C@@H]2C[C@H](CO)[C@@H](O)C2)c(=O)[nH]c1=O | > 100 µM | > 100 µM | > 100 µM | > 100 µM | > 100 µM | > 100 µM | > 100 µM | > 100 µM |  |  |  | 
COc1c(O)c2c3c(c(C)cc(O)c3c1O)C(=O)C(O)(C(C)(C)C(C)=O)C2=O (centres undefined) |  | 28.2 µM and > 100 µM | 28.1 µM and 35.3 µM | > 100 µM | > 100 µM | > 100 µM | > 100 µM | > 100 µM | 13.3 µM and 55.3 µM |  |  | 
O=C1Sc2ccccc2C(=O)N2CSCC12 (centres undefined) |  | > 100 µM | > 100 µM | > 100 µM | > 100 µM | > 100 µM | > 100 µM | > 100 µM |  |  |  | 
CCN(CC)CCCNC(=O)c1ccc([N+](=O)[O-])cc1O | > 100 µM | > 100 µM |  |  | > 100 µM | > 100 µM | > 100 µM |  |  |  |  | 
C=Cc1ccc(C)[n+](C[Si](C)(C)O[Si](C)(C)C[n+]2cc(C=C)ccc2C)c1 |  | > 100 µM | > 100 µM |  | > 100 µM | > 100 µM | > 100 µM | > 100 µM |  |  |  | 
CC(=O)OCC1OC(n2cc(I)c(=O)[nH]c2=O)C(OC(C)=O)C(OC(C)=O)C1OC(C)=O (centres undefined) |  | > 100 µM | > 100 µM | > 100 µM | > 100 µM |  | > 100 µM | > 100 µM |  |  |  | 
CSC(=Nc1ccccc1)N(c1ccccc1)c1nc(=[N+](C)C)ss1 |  | 0.46 µM | 4.98 µM |  |  | 21.4 µM | 2.2 µM |  |  |  |  | 
CC(C(=O)N1C(=O)N(C(=O)C(C)C(O)c2ccccc2)C2CCCCC21)C(O)c1ccccc1 (centres undefined) |  |  | > 100 µM | > 100 µM |  | > 100 µM | > 100 µM |  |  |  |  | 
O=C1NCCS(=O)(=O)N[C@@H](CC2=CC=CCC2)C(=O)N2CCCC12 (some centres undefined) | > 100 µM | > 100 µM | > 100 µM | > 100 µM | > 100 µM | > 100 µM | > 100 µM | > 100 µM |  |  |  | 
CCN1CCCC(NCc2c3ccccc3c(CNC3CCCN(CC)C3)c3ccccc23)C1 (centres undefined) |  | 16.1 µM | 17.6 µM | > 52.1 µM | 69.5 µM | > 73.1 µM | 18.2 µM | > 46.6 µM |  | 33.8 µM | 23.1 µM | 9.25 µM
Cn1ccnc1C(O)(c1nccn1C)c1nccn1C |  | > 100 µM | > 100 µM | > 100 µM | > 100 µM | > 100 µM |  | > 100 µM |  |  |  | 
Nc1nc(N)c(N=O)c(Nc2ccc(Br)cc2)n1 |  | 52.1 µM | > 100 µM | 65.4 µM | > 100 µM | > 100 µM | 79.5 µM | > 100 µM |  |  |  | 
